Reference: patent US6498195B2, “Use of 1-propanone-1-(2,4-dihydroxyphenyl)-3-hydroxy-3-(4′-hydroxyphenyl) as an anticarcinogenic agent” (Rutgers, The State University of New Jersey, priority 2000, dated 2002)
Like-named read-outs stand apart in the source and are kept apart here.

Columns and labels:
bcl-2 = assay: Bcl-2 expression and phosphorylation assay (Western blot mobility shift); type: cell-based; conditions: for bcl-2 phosphorylation: immunoblotting, slower migrating band vs vehicle control, cell line not stated
Experimental: Analysis of bcl-2 protein expression was performed using a Western blot assay as previously described (Haldar, S. et al. 1996. Cancer Res. 56:1253; Haldar, S. et al. 1995. Proc. Natl. Acad. Sci. USA 92:4507-4511). Protein identification was made using a monoclonal bcl-2 primary antibody (DAKO Corporation) and secondary goat anti-mouse horseradish peroxidase conjugated antibody (Bio-Rad Laboratories, Richmond, CA). The phosphorylation of bcl-2 was determined by mobility shifts in the Western bolt as described by Haldar (Haldar, S. et al. 1996. Cancer Res. 56:1253; Haldar, S. et al. 1995. Proc. Natl. Acad. Sci. USA 92:4507-4511).

MCF-7 cells = test system: MCF-7 cells
Experimental: The Apoalert Annexin V-EGFP method (CLONTECH, Palo Alto, Calif.) was used to assess for apoptosis. Briefly, tumor cells were treated for 2 hours and cells were washed with fixing solution and stained with Annexin V-EGFP and propidium iodide for 15 minutes in the dark. Cells were viewed using a Nikin Eclipse TE-200 (Nikon Corporation, Tokyo, Japan) inverted fluorescent microscope. Photographs were captured using a SPOT digital camera (Diagnostic, Inc., Sterling Heights, Mich.) in combination with SPOT […] (Pharmingen, San Diego, Calif.). Cells (1×10^6 per dish) were treated for 12 hours, washed with PBS, and fixed in 1% paraformaldehyde in ice for 30 minutes. After fixation, cells were washed twice with PBS and fixed in 70% ethanol. The pellets were washed and resuspended in 50 μl of the DNA labeling solution containing Br-dUTP and TdT enzyme and incubated for 60 minutes at 37° C. After incubation, the pellets were washed, incubated with FITC labeled anti-BrdU antibody in the dark for 30 minutes at room temperature, and stained with propidium iodide and RNase. The stained cells were analyzed by flow cytometry after 30 minutes. Cell viability was assessed by the tetrazolium dye method as previously described (Scudiero, D.A. et al. 1988. Cancer Res. 48:4827-4833).

microtubule structure [1] = assay: Microtubule assay (indirect immunofluorescence); type: cell-based
Experimental: Microtubule structure was assessed by indirect immunofluorescence as previously described (Zhang, C. C. et al. 1998. Oncogene 16:1617-1624). Cells were grown on coverslips and fixed in ice-cold methanol at −20° C. after drug treatment. The cells were then incubated with a 1:100 dilution of monoclonal anti-alpha-tubulin antibody (Clone DM 1A, mouse ascites fluid; Sigma) in 3% BSA in PBS for 30 minutes and washed in 3% BSA in PBS for 10 minutes. This was followed by incubation with FITC-goat anti-mouse IgG (1:50 dilution) as a secondary antibody for 30 minutes and washed in 3% BSA/PBS and visualized under a epifluorescent microscope (Zeiss AXIOSKOP) using a plan-NEOFLUAR 100 X oil immersion objective. The photographs were captured on a cooled CCD camera (DAGE-MTI) using Scion Image.

MCF-7 tumor cells = assay: Cell cycle analysis by flow cytometry; type: cell-based
Experimental: Cells were treated for 24 hours, incubated with 10 μM BrdU for 45 minutes at 37° C. Cells were then washed with ice-cold PBS, resuspended in 200 μl PBS and fixed with cold 70% ethanol. The cells were resuspended, incubated for 30 minutes in 2 N HCl/0.5% Triton X-100 in PBS, and neutralized by rinsing once in 0.1 M sodium tetraborate (pH 8.5). Fluorescein isothiocyanate (FITC)-conjugated anti-BrdU antibody (Becton Dickinson) was added (10 μg/sample) in 50 μl of 0.5% Tween 20/1% BSA in PBS and incubated for 30 minutes. The cells were washed and resuspended in 1 ml of PBS containing 5 μg/ml propidium iodide. Fluorescence intensity was determined by quantitative flow cytometry and profiles were generated on a Becton Dickinson FACScan. A minimum of 10,000 cells were analyzed.

microtubule structure [2] = conditions: stated as 'has been shown'; cited from earlier work

O=C(CC(O)c1ccc(O[C@@H]2O[C@H](CO)[C@@H](O)[C@H](O)[C@H]2O)cc1)c1ccc(O)cc1O (single isomer, unassigned; peak 1) [peak 1, 1-propanone-1-(2,4-dihydroxyphenyl)-3-hydroxy-3-(4′-hydroxyphenyl-4′o-beta-D-glucapyranoside)]
bcl-2 phosphorylation (bcl-2): induce bcl-2 phosphorylation

O=C(CC(O)c1ccc(O)cc1)c1ccc(O[C@@H]2O[C@H](CO)[C@@H](O)[C@H](O)[C@H]2O)cc1O (single isomer, unassigned; peak 2) [peak 2, 1-propanone-1-(2,4-dihydroxyphenyl-4′-o-beta-D-glucopyranoside)-3-hydroxy-3-(4′-hydroxyphenyl)]
bcl-2 phosphorylation (bcl-2): induce bcl-2 phosphorylation

O=C(CC(O)c1ccc(O)cc1)c1ccc(O)cc1O (stereo not shown) [DC, 1-propanone-1-(2,4-dihydroxyphenyl)-3-hydroxy-3-(4′-hydroxyphenyl)]
IC50 (MCF-7 cells; read-out: IC50, decrease of cell viability, 72 hours): 13 µM | apoptosis (extracellular phosphatidylserine detection) (MCF-7 cells; similar to 10 μM camptothecin control): induced apoptosis | phosphorylation of bcl-2 (bcl-2; DUPro-1 tumor cells): induce phosphorylation of bcl-2 | phosphorylation of bcl-2 (bcl-2; MCF-7 tumor cells): induce phosphorylation of bcl-2 | bcl-2 phosphorylation (bcl-2): induce bcl-2 phosphorylation | effect on microtubule structure (microtubule structure [1]): induce microtubule fragmentation | G2/M cell cycle arrest (MCF-7 tumor cells): induced a G2/M cell cycle arrest

CC(=O)O[C@H]1C(=O)[C@@]2(C)[C@H]([C@H](OC(=O)c3ccccc3)[C@]3(O)C[C@H](OC(=O)[C@H](O)[C@@H](NC(=O)c4ccccc4)c4ccccc4)C(C)=C1C3(C)C)[C@]1(OC(C)=O)CO[C@@H]1C[C@@H]2O [paclitaxel]
effect on microtubule structure (microtubule structure [2]): induce microtubule bundles
